# Measured values as given in patent US10239863B2, “Factor XIa inhibitors” (Merck Sharp & Dohme Corp., priority 2013, dated 2019).
# Target: T1, purified human Factor XIa (Homo sapiens, UniProt P03951)
# T1 construct: Determinations were made using purified human Factor XIa; purchased Sekisui Diagnostics
# Assay: Factor XIa Assay (hydrolysis of fluorogenic substrate Z-Gly-Pro-Arg-AFC)
# Type: biochemical
# Details: purified human Factor XIa 40 pM; Z-Gly-Pro-Arg-AFC 100 μM; 50 mM HEPES pH 7.4; read-out: Factor XIa Inhibition (IC50 (nM))
# Procedure: The effectiveness of compounds of the present invention as inhibitors of Coagulation Factor XIa can be determined using a relevant purified serine protease, and an appropriate synthetic substrate. The rate of hydrolysis of the chromogenic or fluorogenic substrate by the relevant serine protease was measured both in the absence and presence of compounds of the present invention. Assays were conducted at room temperature or at 37° C. […] A decrease in the rate of fluorescence change in the presence of inhibitor is indicative of enzyme inhibition. Such methods are known to one skilled in the art. […]
# Factor XIa determinations were made in 50 mM HEPES buffer at pH 7.4 containing 150 mM NaCl, 5 mM CaCl2, and 0.1% PEG 8000 (polyethylene glycol; JT Baker or Fisher Scientific). Determinations were made using purified human Factor XIa at a final concentration of 40 pM (Sekisui Diagnostics) and the synthetic substrate, Z-Gly-Pro-Arg-AFC, TFA salt (Sigma #C0980) at a concentration of 100 μM.
# Times required to achieve equilibration between enzyme and inhibitor were determined in control experiments. Initial velocities of product formation in the absence (Vo) or presence of inhibitor (Vi) were measured. Assuming competitive inhibition, and that unity is negligible compared Km/[S], [I]/e, and [I]/e (where [S], [I], and e respectively represent the total concentrations, of substrate, inhibitor and enzyme), the equilibrium constant (Ki) for dissociation of the inhibitor from the enzyme can be obtained from the dependence of Vo/Vi on [I] shown in the following equation.
# T1 sequence (P03951 388-625 limits assumed): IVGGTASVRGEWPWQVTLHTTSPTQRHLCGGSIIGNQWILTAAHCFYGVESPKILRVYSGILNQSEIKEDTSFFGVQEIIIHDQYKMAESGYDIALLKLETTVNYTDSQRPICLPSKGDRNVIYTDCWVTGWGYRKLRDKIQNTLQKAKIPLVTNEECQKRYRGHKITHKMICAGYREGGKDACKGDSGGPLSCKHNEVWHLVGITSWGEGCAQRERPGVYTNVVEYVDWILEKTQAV
# T1 sequence (P03951 19-387 partner limits assumed): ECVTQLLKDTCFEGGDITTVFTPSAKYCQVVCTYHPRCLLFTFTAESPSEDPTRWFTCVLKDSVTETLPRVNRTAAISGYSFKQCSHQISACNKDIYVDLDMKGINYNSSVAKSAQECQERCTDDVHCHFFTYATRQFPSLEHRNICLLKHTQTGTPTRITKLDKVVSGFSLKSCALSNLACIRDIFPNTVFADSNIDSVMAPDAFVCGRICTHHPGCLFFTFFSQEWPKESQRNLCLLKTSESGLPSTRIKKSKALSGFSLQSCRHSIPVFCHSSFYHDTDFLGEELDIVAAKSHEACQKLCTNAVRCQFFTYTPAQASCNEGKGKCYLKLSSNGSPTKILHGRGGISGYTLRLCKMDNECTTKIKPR
row,SMILES,IC50 [nM]
1,"COC(=O)Nc1ccc(-c2c[nH]c(C3C(c4ccc(F)cc4)CC(N4CCC(N)CC4)CN3C(=O)/C=C/c3c(F)ccc(Cl)c3F)n2)cc1 (stereo not drawn) [Example 21, methyl [4-(2-{4-amino-1′-[(2E)-3-(3-chloro-2,6-difluorophenyl)prop-2-enoyl]-5′-(4-fluorophenyl)-1,3′-bipiperidin-6′-yl}-1H-imidazol-4-yl)phenyl]carbamate]",407
2,"COC(=O)Nc1ccc(-c2c[nH]c(C3C(c4ccc(F)cc4)CC(C4CCNCC4)CN3C(=O)/C=C/c3cc(Cl)ccc3-n3cnnn3)n2)cc1 (stereo not drawn) [Example 27, methyl (4-{2-[1-{(2E)-3-[5-chloro-2-(1H-tetrazol-1-yl)phenyl]prop-2-enoyl}-5-(4-fluorophenyl)-3,4′-bipiperidin-6-yl]-1H-imidazol-4-yl}phenyl)car-bamate]",710
3,"O=C(O)c1ccc(NC(=O)C2C(c3ccccc3)CC(N3CCNCC3)CN2C(=O)/C=C/c2cc(Cl)ccc2-n2cnnn2)cc1 (stereo not drawn) [Example 2, 4-{[(1-{(2E)-3-[5-chloro-2-(1H-tetrazol-1-yl)phenyl]prop-2-enoyl}-3-phenyl-5-piperazin-1-ylpiperidin-2-yl)carbonyl]amino}benzoic acid]",11.4
4,"O=C(Nc1ccc2[nH]ncc2c1)[C@@H]1[C@H](c2ccc(F)cc2)C[C@H](N2CCNCC2)CN1C(=O)/C=C/c1cc(Cl)ccc1-n1cnnn1 [Example 31, (2S,3S,5S)-1-{(2E)-3-[5-chloro-2-(1H-tetrazol-1-yl)phenyl]prop-2-enoyl}-3-(4-fluorophenyl)-N-1H-indazol-5-yl-5-piperazin-1-ylpiperidine-2-carboxamide]",40.9
5,"COC(=O)Nc1ccc(-c2c[nH]c([C@@H]3[C@H](C4CC4)C[C@H](C4CCNCC4)CN3C(=O)/C=C/c3cc(Cl)ccc3-n3cnnn3)n2)cc1 (single isomer, unassigned) [Example 26]",656
6,"COC(=O)Nc1ccc(-c2cnc(C3C(c4ccc(F)cc4)CC(N4CCC(N)CC4)CN3C(=O)/C=C/c3c(C(F)(F)F)ccc(Cl)c3F)[nH]2)cc1 (stereo not drawn) [Example 19, methyl (4-{2-[4-amino-1′-{(2E)-3-[3-chloro-2-fluoro-6-(trifluorometh-yl)phenyl]prop-2-enoyl}-5′-(4-fluorophenyl)-1,3′-bipiperidin-6′-yl]-1H-imidazol-5-yl}phenyl)carbamate]",67.8
